Columns and labels:
MG-63 cells [1] = test: Cell cycle analysis (PI, FACS), MG-63; type: cell-based, human
Method: (§1) Cells were harvested and fixed with 70% ethanol at regular time intervals. Fixed cells were stained with propidium iodide (PI) for flow cytometry analysis using BD FACScan (BD Biosciences, San Jose, Calif.). Distribution of cell cycle was analyzed by ModFit LT V2.0 software (Verity Software House, Topsham, Me.). […] After 24, 48, and 72 hours of exposure, cells were harvested and stained with PI and fluorescein isothiocyanate (FITC) using Annexin V-FITC apoptosis detection kit (BD Biosciences) according to the manufacturer's protocol. Cells were subjected to flow cytometry analysis within one hour of staining.

SAOS-2 cells = test: Annexin V-FITC apoptosis assay, SAOS-2; type: cell-based, human; details: at ED50, 72 hours of exposure
Method: as §1

MG-63 cells [2] = test: Morphological changes (crystal violet staining), MG-63; type: cell-based, human
Method: FIG. 2. (A) Graphical representation of the effect of CuB on MG-63 and SAOS-2 cells. Cells were exposed to CuB at their ED50 (70 nM for MG-63 and 50 nM for SAOS-2 cells). Time-dependent antiproliferative activity of CuB on MG-63 and SAOS-2 cells measured by pulse-exposure experiments. Cells were exposed to CuB for 2, 9, or 20 hours, washed extensively, and cultured in the absence of CuB for an additional 24, 48, and 72 hours. Cell growth was measured by MTT assay. Measurements were repeated in triplicates. Data represent mean±SD. Asterisks (**) represent p<0.001 vs DMSO control by t-test. (B) Morphological changes of MG-63 and SAOS-2 cells after exposure to cucurbitacin B. Cells with normal morphology (top) were compared to rounded cells (middle) and multinucleated cells (bottom). […] Representative cells are shown. 400×; scale bar=50 μm. (C) Graphical representation of G2/M cell cycle arrest after 20 hours of exposure to cucurbitacin B. Cells were stained with propidium iodide (PI) and analyzed by FACS. (D) Graphical representation of apoptosis after 72 hours of exposure to cucurbitacin B. Cells were stained with PI and Annexin V-FITC, and analyzed by FACS.

S6K and 4EBP1 = test: Western blotting, downstream targets of mTOR; type: cell-based, human; details: MG-63 and SAOS-2 cells
Method: (§2) Changes in protein level by CuB were checked by Western blotting. […] After 2, 9, and 20 hours of exposure, cells were harvested and immediately lysed with RIPA buffer (Millipore—Upstate, Temecula, Calif.) supplemented with protease inhibitor cocktail (Roche, San Francisco, Calif.), 0.5 mM PMSF (Roche), and 50 mM NaF (Sigma). After 20 minutes of incubation on ice, protein concentrations were measured by Bradford assay with Bio Rad protein assay solution (Bio-Rad, Hercules, Calif.) and samples were adjusted to the same protein concentration. Samples were mixed with 2× Laemmli sample buffer (Bio-Rad) with 5% β-mercaptoethanol (Sigma) and incubated at 95° C. for 10 min to denature the protein. After brief incubation on ice, proteins were separated by SDS-PAGE, transferred to nitrocellulose membrane (Sigma), and blotted with antibodies from either Cell Signaling Technology (Danvers, Mass.) or Santa Cruz Biotechnology (Santa Cruz, Calif.). Target proteins were visualized by Supersignal West Dura Substrate (Thermo-Pierce, Rockford, Ill.). GAPDH protein was used as a loading control.

ERK = test: Western blotting, ERK phosphorylation; type: cell-based, human; details: MG-63 and SAOS-2 cells
Method: as §2

Akt = test: Western blotting, Akt phosphorylation; type: cell-based, human; details: MG-63 cells
Method: as §2

[3] = test system: cyclin A and cyclin-dependent kinase inhibitor 1 (p21^WAF1); test: Western blotting, cyclin A and p21^WAF1; type: cell-based, human; details: MG-63 and SAOS-2 cells
Method: as §2

[4] = test system: poly ADP-ribose polymerase (PARP); test: Western blotting, PARP cleavage; type: cell-based, human; details: MG-63 and SAOS-2 cells
Method: as §2

MG-63 xenografts = test: Growth of MG-63 xenografts in athymic nude mice; type: in vivo
Method: All animal experiments strictly followed the guidelines of Cedars-Sinai Medical Center and the National Institute of Health (NIH). Female nu/nu athymic nude mice (5-6 weeks old; average weight 21 g; specific pathogen-free) from Harlan Laboratories (Indianapolis, Ind.) were maintained in pathogen-free condition with sterilized chow and water. 5×10^6 cells of MG-63 cells were mixed with 200 μl of Matrigel solution (BD Biosciences) per injection, and the mixture was injected subcutaneously on the upper flanks of nude mice. After 24 hours, tumor size was measured, and any outliers were ruled out by one-way analysis of variance (ANOVA) test. […] The conversion was made using dose translation formula by Reagan-Shaw et al., (15). […] Body weights were monitored every 2 days. Tumor size was measured every 2 days, and the tumor volume was calculated using the following formula: A (length)×B (width)×C (height)×0.5236 (16). The experiment was stopped at day 35, and all mice were sacrificed. The presence of metastatic spread was examined macroscopically at the time of autopsy followed by histological examination. At least two tumors from each group were snap-frozen in liquid nitrogen for Western blotting.

Organ weight in mice = type: in vivo; details: day 35
Description: At autopsy, tumors and internal organs including liver, spleen, kidneys were excised, weighed, and then fixed in 10% PBS-buffered formalin and maintained in 70% ethanol. For IHC, fixed tumors and organs were embedded in paraplast (Oxford Labware, St. Louis, Mo.), cut in 6 μm thick sections, and stained with hematoxylin and eosin (HE) for histopathological examination.

Serum chemistry in mice = type: in vivo; details: day 35
Method: Whole blood samples were obtained by submandibular bleeding and serum samples were harvested with serum separator tubes (BD Biosciences). Blood count and serum chemistry results were obtained by the Hemagen Analyst Benchtop Chemistry System (Hemagen Diagnostics, Inc. Columbia, Md.). Colony-forming cell (CFC) assays were performed as previously described (18).

mTOR = mTOR (Homo sapiens, UniProt P42345); test: Western blotting, mTOR phosphorylation; type: cell-based; design: endogenous in cells; host or cells: MG-63 and SAOS-2 cells; details: MG-63 and SAOS-2 cells; at ED50, 2, 9, or 20 hours
Method: as §2

Q: Which “increase of G2/M phase” value (MG-63 cells [1]; 20 hours of exposure) does the source give for `CC(=O)OC(C)(C)/C=C/C(=O)[C@](C)(O)[C@H]1[C@H](O)C[C@@]2(C)[C@@H]3CC=C4[C@H](C[C@H](O)C(=O)C4(C)C)[C@]3(C)C(=O)C[C@]12C` [CuB, cucurbitacin B] here?
A: around 3 fold

Q: What about the G2/M phase (MG-63 cells [1]; 20 hours of exposure at ED50 (control 27%)) of the same molecule?
A: 76%

Q: What about the apoptotic cells (SAOS-2 cells) of the same molecule?
A: 96%

Q: What about the morphological changes (MG-63 cells [2]; 2 hour exposure) of the same molecule?
A: Rapid loss of pseudopodia and rounding

Q: What about the morphological changes (MG-63 cells [2]; 9 hour-exposure) of the same molecule?
A: multinuclearity which was not reversed by CuB removal

Q: What about the “downstream targets of mTOR (S6K, 4EBP1)” value (S6K and 4EBP1) of the same molecule?
A: Inhibition of downstream targets of mTOR such as S6K and 4EBP1

Q: What about the ERK phosphorylation (ERK) of the same molecule?
A: inhibited ERK phosphorylation without changing the total levels of ERK in both cells

Q: And the “Akt phosphorylation at S473” value (Akt)?
A: Inhibition of Akt phosphorylation at S473 was observed in MG-63 cells

Q: And the “protein levels of cyclin A and p21^WAF1” value [3]?
A: increased the protein levels of cyclin A and cyclin-dependent kinase inhibitor 1 (p21^WAF1) in both cells

Q: And the PARP cleavage [4]?
A: showed cleavage of the precursor molecules in both cells

Q: And the tumor growth inhibition (MG-63 xenografts; HD-CuB 1.0 mg/kg alone)?
A: strong growth inhibition

Q: What about the tumor volume (MG-63 xenografts; LD-CuB 0.5 mg/kg, single agent) of the same molecule?
A: allowed the tumor volume to increase slightly from its original size

Q: And the Kidney organ weight (Organ weight in mice; HD-CuB 1.0 mg/kg)?
A: 370 ± 1 mg

Q: What about the Liver organ weight (Organ weight in mice; HD-CuB 1.0 mg/kg) of the same molecule?
A: 1260 ± 141 mg

Q: What about the Spleen organ weight (Organ weight in mice; HD-CuB 1.0 mg/kg) of the same molecule?
A: 110 ± 1 mg

Q: And the Kidney organ weight (Organ weight in mice; LD-CuB 0.5 mg/kg)?
A: 360 ± 1 mg

Q: And the Liver organ weight (Organ weight in mice; LD-CuB 0.5 mg/kg)?
A: 1250 ± 60 mg

Q: And the Spleen organ weight (Organ weight in mice; LD-CuB 0.5 mg/kg)?
A: 117 ± 6 mg

Q: What about the CK (Serum chemistry in mice; HD-CuB 1.0 mg/kg) of the same molecule?
A: 156.0 ± 33.9 U/l

Q: What about the albumin (Serum chemistry in mice; HD-CuB 1.0 mg/kg) of the same molecule?
A: 3.4 ± 0.1 g/dL

Q: And the bilirubin (Serum chemistry in mice; HD-CuB 1.0 mg/kg)?
A: 0.06 ± 0.00 mg/dL

Q: What about the cholesterol (Serum chemistry in mice; HD-CuB 1.0 mg/kg) of the same molecule?
A: 172.0 ± 8.5 mg/dL

Q: What about the creatine (Serum chemistry in mice; HD-CuB 1.0 mg/kg) of the same molecule?
A: 0.42 ± 0.25 mg/dL

Q: What about the globulin (Serum chemistry in mice; HD-CuB 1.0 mg/kg) of the same molecule?
A: 1.6 ± 0.2 g/dL

Q: What about the total protein (Serum chemistry in mice; HD-CuB 1.0 mg/kg) of the same molecule?
A: 5.0 ± 0.1 g/dL

Q: And the uric acid (Serum chemistry in mice; HD-CuB 1.0 mg/kg)?
A: 5.5 ± 0.6 mg/dL

Q: And the CK (Serum chemistry in mice; LD-CuB 0.5 mg/kg)?
A: 140.5 ± 70.0 U/l

Q: And the albumin (Serum chemistry in mice; LD-CuB 0.5 mg/kg)?
A: 3.1 ± 0.1 g/dL

Q: And the bilirubin (Serum chemistry in mice; LD-CuB 0.5 mg/kg)?
A: 0.09 ± 0.04 mg/dL

Q: And the cholesterol (Serum chemistry in mice; LD-CuB 0.5 mg/kg)?
A: 147.0 ± 5.7 mg/dL

Q: What about the creatine (Serum chemistry in mice; LD-CuB 0.5 mg/kg) of the same molecule?
A: 0.29 ± 0.05 mg/dL

Q: And the globulin (Serum chemistry in mice; LD-CuB 0.5 mg/kg)?
A: 0.7 ± 0.9 g/dL

Q: And the total protein (Serum chemistry in mice; LD-CuB 0.5 mg/kg)?
A: 3.7 ± 1.0 g/dL

Q: What about the uric acid (Serum chemistry in mice; LD-CuB 0.5 mg/kg) of the same molecule?
A: 3.7 ± 0.3 mg/dL

Q: What about the “mTOR phosphorylation at S2448 and S2481” value (mTOR) of the same molecule?
A: inhibition of mTOR phosphorylation at S2448 and S2481 without affecting the total level of mTOR

Reference: patent publication US20120238532A1, “TREATMENT OF HUMAN OSTEOSARCOMA” (CEDARS-SINAI MEDICAL CENTER, priority 2009, published 2012)
